Measurements as given in patent US20030216361A1, “Therapeutic compositions effective against gram positive bacteria” (priority 2000, published 2003).
In brackets after ≈: the same amount, converted by molar mass. Like-named read-outs stand apart in the source and are kept apart here.

How the values were obtained:
S. pneumoniae 6303 = test: Time-kill studies; type: cell-based, Streptococcus pneumoniae
Description: This experiment illustrates a study of the time required (time-kill studies) for anti-microbial action of 3β-acetoxy-17β-(L-prolyl) amino-5α-androstane with certain gram positive bacteria.
Overnight cultures of Staphylococcus aureus 29213, Enterococcus faecalis 29212 and S. pneumoniae 6303 in MHII broth were inoculated into the same medium containing multiples of the broth macrodilution MIC of 3β-acetoxy-17β-(L-prolyl) amino-5α-androstane, or an equivalent volume of MeOH. Cultures were shaken at 37° C., and aliquots were aseptically removed at various times for dilution plating. Standard errors of the means were calculated from at least two experiments. The detection limit in these experiments was 10 CFU/ml.

[1] = system: Vancomycin-resistant Enterococcus faecalis, clinical isolate; test: Effect of pH on broth macrodilution MICs; type: cell-based
[2] = system: Staphylococcus aureus ATCC 29213; test: Disk diffusion susceptibility testing
[3] = system: Stenotrophomonas maltophilia ATCC 13637; test: Disk diffusion susceptibility testing
[4] = system: Escherichia coli ATCC 25922; test: Disk diffusion susceptibility testing
[5] = system: Enterobacter cloacae ATCC 13047; test: Disk diffusion susceptibility testing
[6] = system: Klebsiella pneumoniae Presque Isle 344; test: Disk diffusion susceptibility testing
[7] = system: Candida albicans ATCC 90028; test: Disk diffusion susceptibility testing
[8] = system: Cryptococcus neoformans ATCC 90112; test: Disk diffusion susceptibility testing
S. saprophyticus = test: Broth macrodilution MIC and MBC, clinical isolates; conditions: 3 strains
[9] = system: Vancomycin-resistant Enterococcus spp.; test: Broth macrodilution MIC and MBC, clinical isolates
[10] = system: Vancomycin-resistant E. faecalis; test: Broth macrodilution MIC and MBC, clinical isolates; conditions: 2 strains
[11] = system: Vancomycin-resistant E. faecium; test: Broth macrodilution MIC and MBC, clinical isolates; conditions: 2 strains
Invasive S. pneumoniae = test: Broth macrodilution MIC and MBC, clinical isolates
Group A Streptococcus = test: Broth macrodilution MIC and MBC, clinical isolates
Bacillus subtilis = test: Broth macrodilution MIC and MBC, clinical isolates; conditions: 4 strains
B. circulans = test: Broth macrodilution MIC and MBC, clinical isolates; conditions: clinical isolate, 1 strain
B. licheniformis = test: Broth macrodilution MIC and MBC, clinical isolates; conditions: clinical isolate, 1 strain
Paenibacillus alvei = test: Broth macrodilution MIC and MBC, clinical isolates; conditions: clinical isolate, 1 strain
Rhodococcus spp. = test: Broth macrodilution MIC and MBC, clinical isolates
R. equi = test: Broth macrodilution MIC and MBC, clinical isolates; conditions: 3 strains
C. sputi = test: Broth macrodilution MIC and MBC, clinical isolates; conditions: clinical isolate, 1 strain
Lactobacillus spp. = test: Broth macrodilution MIC and MBC, clinical isolates; conditions: clinical isolate, 1 strain
[12] = system: Staphylococcus aureus ATCC 29213; test: Broth macrodilution MIC and MBC, reference strains; conditions: ATCC29213
[13] = system: S. epidermidis Presque Isle 4653; test: Broth macrodilution MIC and MBC, reference strains; conditions: Staphylococcus epidermidis
[14] = system: Streptococcus pneumoniae ATCC 6303; test: Broth macrodilution MIC and MBC, reference strains; conditions: ATCC6303
[15] = system: Micrococcus luteus Presque Isle 456; test: Broth macrodilution MIC and MBC, reference strains

CC(=O)O[C@H]1CC[C@@]2(C)[C@@H](CC[C@@H]3[C@@H]2CC[C@]2(C)[C@@H](NC(=O)[C@@H]4CCCN4)CC[C@@H]32)C1
Killing (concentration dependence) (S. pneumoniae 6303): concentration-dependent
Killing (time dependence) (S. pneumoniae 6303): time-dependent
time to 99.9% kill (S. pneumoniae 6303; at the MIC): 6 h
survivors after 24 h (S. pneumoniae 6303; one times the MIC): no survivors
time to 99.9% kill (S. pneumoniae 6303; two times the MIC): 2 h
survivors after 24 h (S. pneumoniae 6303; two times the MIC): no survivors
MIC Range ([1]; pH 6, range of 3 determinations): 32 µg/mL (≈ 74.3 µM)
MIC Range ([1]; pH 7, range of 3 determinations): 8 µg/mL (≈ 18.6 µM)
MIC Range ([1]; pH 8, range of 3 determinations): 4 to 8 µg/mL
MIC [2]: 12.5-25 μg/disk
MIC [3]: >100 μg/disk
MIC [4]: >100 μg/disk
MIC [5]: >100 μg/disk
MIC [6]: >100 μg/disk
MIC [7]: >100 μg/disk
MIC [8]: >100 μg/disk
MBC Range (S. saprophyticus): 8 µg/mL (≈ 18.6 µM)
MIC Range (S. saprophyticus): 4 to 8 µg/mL
MIC50 ([9]; Enterococcus): 8 µg/mL (≈ 18.6 µM)
MIC90 ([9]; Enterococcus): 16 µg/mL (≈ 37.2 µM)
MBC ([9]; Enterococcus, read-out: MBC 50%): 16 µg/mL (≈ 37.2 µM)
MBC ([9]; Enterococcus, read-out: MBC 90%): > 64 µg/mL
MIC Range ([9]; clinical isolates, 34 strains): 4 to 16 µg/mL
share of strains with MBC/MIC ratios ≦2 ([9]; vancomycin-resistant Enterococcus spp.): 59%
MBC Range [10]: 16 to 64 µg/mL
MIC Range [10]: 8 to 16 µg/mL
MBC Range [11]: 16 to 64 µg/mL
MIC Range [11]: 8 to 16 µg/mL
MIC50 (Invasive S. pneumoniae; Streptococcus pneumoniae): 8 µg/mL (≈ 18.6 µM)
MBC Range (Invasive S. pneumoniae; clinical isolates, 15 strains): 8 to 64 µg/mL
share of strains with MBC/MIC ratios ≦2 (Invasive S. pneumoniae; invasive S. pneumoniae): 93%
share of strains with MBC/MIC ratios ≦2 (Group A Streptococcus; Group A Streptococcus): 89%
MIC50 (Group A Streptococcus; Streptococcus): 8 µg/mL (≈ 18.6 µM)
MIC90 (Group A Streptococcus; Streptococcus): 16 µg/mL (≈ 37.2 µM)
MBC (Group A Streptococcus; Streptococcus, read-out: MBC 50%): 16 µg/mL (≈ 37.2 µM)
MBC (Group A Streptococcus; Streptococcus, read-out: MBC 90%): 32 µg/mL (≈ 74.3 µM)
MBC Range (Group A Streptococcus; clinical isolates, 18 strains): 8 to 32 µg/mL
MIC Range (Group A Streptococcus; clinical isolates, 18 strains): 8 to 16 µg/mL
MIC Range (Bacillus subtilis): 8 µg/mL (≈ 18.6 µM)
MBC Range (B. circulans): >64 µg/mL
MIC Range (B. circulans): 16 µg/mL (≈ 37.2 µM)
MBC Range (B. licheniformis): >64 µg/mL
MIC Range (B. licheniformis): 32 µg/mL (≈ 74.3 µM)
MBC Range (Paenibacillus alvei): >64 µg/mL
MIC Range (Paenibacillus alvei): 16 µg/mL (≈ 37.2 µM)
MIC50 (Rhodococcus spp.; Rhodococcus): 8 µg/mL (≈ 18.6 µM)
MIC90 (Rhodococcus spp.; Rhodococcus): 16 µg/mL (≈ 37.2 µM)
share of strains with MBC/MIC ratios ≦2 (Rhodococcus spp.; Rhodococcus spp.): 58%
MBC (Rhodococcus spp.; Rhodococcus, read-out: MBC 50%): 16 µg/mL (≈ 37.2 µM)
MBC (Rhodococcus spp.; Rhodococcus, read-out: MBC 90%): 32 µg/mL (≈ 74.3 µM)
MIC Range (Rhodococcus spp.; clinical isolates, 19 strains, read after 48 h): 4 to 64 µg/mL
MBC Range (R. equi): 16 to 32 µg/mL
MIC Range (R. equi; read after 48 h): 4 to 8 µg/mL
MBC Range (C. sputi): 32 µg/mL (≈ 74.3 µM)
MIC Range (C. sputi; read at 72 h): 8 µg/mL (≈ 18.6 µM)
MBC Range (Lactobacillus spp.): 32 µg/mL (≈ 74.3 µM)
MIC Range (Lactobacillus spp.): 16 µg/mL (≈ 37.2 µM)
MBC [12]: 64 µg/mL (≈ 149 µM)
MIC [12]: 4 µg/mL (≈ 9.29 µM)
MBC [13]: 32 µg/mL (≈ 74.3 µM)
MIC [13]: 8 µg/mL (≈ 18.6 µM)
MBC [14]: 16 µg/mL (≈ 37.2 µM)
MIC [14]: 16 µg/mL (≈ 37.2 µM)
MBC [15]: 64 µg/mL (≈ 149 µM)
MIC [15]: 8 µg/mL (≈ 18.6 µM)
